Where “and” joins values, the source holds several entries; their conditions need not be identical. Equal values may be shown once. Where a name gives a salt, the structure may show the parent alone. Read-outs that look alike come from different tables or passages of the source.
Columns and labels:
[1] = system: spinal cord coronal sections of SCI mice; conditions: female, n=3
Experimental: We first measured the lesion size and spared white matter using cresyl violet and cosin staining.
Tissue Processing: All the animals were deeply anesthetized with Avertin and then perfused transcardially with cold saline, followed by a fixative containing 4% paraformaldehyde (PFA) in PBS. The spinal cord was removed, post-fixed overnight in PFA, and cryoprotected for 48 hours in 30% sucrose. Serial 30 μm thick coronal sections were cut using a cryostat (Leica CM 1950), mounted on slides and stored at −20° C. The sections were then processed for histopathological analysis.
Cresyl violet and cosin staining: A set of slides were first removed from the freezer and allowed to air dry for a minimum of 60 minutes at room temperature. Subsequently, the sections were treated with two 5-minute rinses in 10 mM PBS, followed by a 1-minute rinse in ddH2O. Next, slides were immersed for 20 minutes in Nissl stain, followed by two 5-minute rinses in ddH2O. Subsequently, slides were sequentially immersed in 90% ethanol (3 minutes), 95% ethanol (3 minutes), two changes of 100% ethanol (3 minutes each), and finally, three changes of 100% xylene (3 minutes each). Lastly, slides were mounted using Permount.

mouse with a SCI = conditions: 4 hours after 1 ml saline IP injection, n=5
[2] = system: none-injury young adult c57 BL/6 mice
Experimental: The effects of different doses of Dex on hypothermia induction in none-injury young adult c57 BL/6 mice was tested. […] Further, we examined the change of Dex induced hypothermia when the routine Avertin (2.5%), a wildly used anesthetic for small animal surgery was applied.

Cc1cccc([C@H](C)c2cnc[nH]2)c1C [Dex, dexmedetomidine hydrochloride]
total area of spinal cord section, SCI+Dex vs. SCI [1]: no significant difference | frequency of urination (mouse with a SCI): 6±0.82 | urine volume (mouse with a SCI): 0.3 ± 0.04 mL | hypothermia induction ([2]; Dex 1 μg/kg IP, none-injury mice): failed to induce hypothermia | hypothermia induction ([2]; Dex 10 μg/kg IP, none-injury mice): failed to induce hypothermia | duration of hypothermia ([2]; Dex 50 μg/kg IP, ambient temperature 24.5° C.): less than one hour | hypothermia body temperature ([2]; Dex 50 μg/kg IP, ambient temperature 24.5° C., mild hypothermia): 34-35 °C | duration of hypothermia ([2]; Dex 50 μg/kg one hour post Avertin (2.5%), none-injury mice): 2 h | duration of hypothermia ([2]; Dex 100 μg/kg IP alone, ambient temperature 24.5° C., hydrochloride): 2 h and 3 h | hypothermia body temperature ([2]; Dex 100 μg/kg IP, mild to moderate hypothermia): 30-32 °C | duration of hypothermia ([2]; Dex 100 μg/kg one hour post Avertin (2.5%), none-injury mice): 6 h | death of treated mice ([2]; Dex 200 μg/kg IP, due to urethral obstructions): about 40% | hypothermia body temperature ([2]; Dex 200 μg/kg IP, more severe hypothermia): lower than 28 °C | induced hypothermia body temperature ([2]; in one hour at ambient temperatures 24-25° C., modest hypothermia): 30-32 °C
